According to PubChem BioAssay (NCI):
Values joined by “and” are separate entries in the source; they are usually repeats but may differ in a detail not shown here. Identical values can stand only once.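 Five compound concentrations were applied to cells in 96-well plates for 48 hours; endpoints were derived by simple linear interpolation of the resulting dose-response curve. GI50 = concentration required for 50% inhibition of growth. TGI: concentration producing complete growth inhibition.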

Legend:
Test in all cases: NCI tumour cell line growth inhibition, 48 h
NCI-H226 lung = system: NCI-H226 lung
SK-MEL-5 melanoma = system: SK-MEL-5 melanoma
MDA-MB-435 = system: MDA-MB-435
RXF 393 renal = system: RXF 393 renal
EKVX NSCLC = system: EKVX NSCLC
SR leukemia = system: SR leukemia
HOP-92 NSCLC = system: HOP-92 NSCLC
UO-31 renal = system: UO-31 renal
MOLT-4 leukemia = system: MOLT-4 leukemia
TK-10 renal = system: TK-10 renal

SMILES | GI50 (NCI-H226 lung) [µM] | TGI (NCI-H226 lung) | GI50 (SK-MEL-5 melanoma) [µM] | TGI (SK-MEL-5 melanoma) | GI50 (MDA-MB-435) [µM] | TGI (MDA-MB-435) | GI50 (RXF 393 renal) [µM] | TGI (RXF 393 renal) | GI50 (EKVX NSCLC) [µM] | TGI (EKVX NSCLC) | GI50 (SR leukemia) [µM] | TGI (SR leukemia) [µM] | GI50 (HOP-92 NSCLC) | TGI (HOP-92 NSCLC) | GI50 (UO-31 renal) | TGI (UO-31 renal) | GI50 (MOLT-4 leukemia) [µM] | TGI (MOLT-4 leukemia) | GI50 (TK-10 renal) [µM] | TGI (TK-10 renal)
CCCCc1nc2cc(/C=C/C(=O)NO)ccc2n1CCN(CC)CC | 0.608 | 3.45 µM | 0.146 | 0.339 µM | 0.24 | 0.855 µM | 0.178 | 0.789 µM | 0.387 | > 100 µM | 0.605 | > 100 | 0.0821 µM | 0.456 µM | 0.25 µM | 4.92 µM | 0.384 | > 88.8 µM | 0.116 | 0.598 µM
Oc1ccc(SCc2ccc(NCc3ccccc3)cc2)cc1 |  | > 100 µM |  | 47.3 µM |  | > 100 µM |  | 78.8 µM |  | 50.3 µM |  | 47.6 |  | > 100 µM |  | 56.5 µM |  | 39.7 µM |  | > 100 µM
OC(C(=Nc1ccccc1)c1ccccc1)c1ccccc1 (stereo not drawn) |  | 34.1 µM |  | 5.87 µM |  | 11.8 µM |  | 26.1 µM |  | 9.35 µM |  | 10.7 |  | 21 µM |  | 39.8 µM |  | 55.1 µM |  | 9.53 µM
CC(C)c1ccc(O)c(=O)cc1 | 66.7 | 36.5 µM | 11.1 | 35.2 µM and 41.4 µM | 19.6 |  |  | > 86.2 µM |  | > 100 µM | 4.18 | > 100 | 3.12 µM | > 100 µM | 6.31 µM | 35.7 µM and 71.7 µM | 2.16 | > 44.8 µM and 6.22 µM | 39.7 | > 100 µM
O=C(Nc1ccccc1F)c1ccc(NC2=C(Cl)C(=O)N(Cc3ccccc3)C2=O)cc1 | 11.2 | 25.2 µM | 4.41 | 16.2 µM | 3.07 | 11.5 µM | 5.09 | 16.6 µM | 16.6 | 30.2 µM | 0.66 | 2.46 | 1.91 µM | 5.03 µM | 1.86 µM | 3.6 µM | 2.45 | 6.79 µM |  | 
O=[N+]([O-])c1ccc(O)c2ncccc12 |  | > 100 µM and 18.6 µM |  |  |  | > 100 µM and 15.2 µM |  | > 100 µM and 18.2 µM |  | > 100 µM and 17.9 µM | 3.01 | 9.29 | 19.1 µM and 4.22 µM | 82.6 µM and 21.3 µM | 18.7 µM and 3.93 µM | > 100 µM and 20.8 µM |  | > 100 µM and 10.4 µM |  | > 100 µM and 30.3 µM
CC(C)CC(=O)CC(O)C(Cl)(Cl)Cl (stereo not drawn) |  | > 100 µM |  | > 100 µM |  | > 100 µM |  | > 100 µM |  | > 100 µM |  | > 100 |  |  |  | > 100 µM |  | > 100 µM |  | > 100 µM
COc1ccc(-c2nn(-c3cccc(NC(=O)Nc4cccc(C(F)(F)F)c4)c3)cc2-c2ccncc2)cc1Cl | 2.14 | 9.43 µM | 1.57 | 3.22 µM | 1.45 | 4.67 µM | 1.33 | 6.37 µM |  |  | 1.31 | 4.84 | 0.229 µM | 3 µM | 1.48 µM | > 100 µM | 1.76 | 8.38 µM | 4.1 | > 100 µM
N#Cc1ccc2oc3ccc(C#N)cc3c(=O)c2c1 |  | 77.5 µM |  | 17.6 µM |  | > 100 µM |  | 42.8 µM |  |  |  | > 100 |  | > 100 µM |  | > 100 µM |  | 46.9 µM |  | 73.4 µM
COc1cccc2c(Nc3ccc(C(=O)NCCN(C)C)cc3)cc(-c3ccccc3)nc12 | 19.3 | 40 µM | 17.3 | 32.1 µM | 22 | 39.1 µM | 5.12 | 19.7 µM | 27 | 81.4 µM | 1.86 | 7.52 | 0.832 µM | 8.86 µM | 13.9 µM | 32.3 µM |  |  | 23.8 | 57.2 µM
Clc1ccc(Nc2nc3ccccc3c3occc23)cc1 |  |  | 7.52 | 14.1 µM | 7.5 | 14.1 µM | 8.4 | 16.9 µM | 8.02 | 15.9 µM | 23.2 | > 50 | 6.53 µM | 13.2 µM | 7.91 µM | 22.6 µM |  |  | 4.99 | 11 µM
CC12CCC(O)CC1CCC1C2CCC2(C)C(C3=CC(=O)OC3)CCC12 (stereo not drawn) | > 33.6 | > 100 µM | > 100 | > 100 µM | > 100 | > 100 µM | 7.76 | 42.5 µM |  |  | 0.375 | > 100 | 5.02 µM | 29.5 µM | > 100 µM | > 100 µM | > 100 | > 100 µM | 19.6 | 66.4 µM
COP1(=S)OCC2CCC[C@@H]2O1 (stereo partly drawn) |  | > 100 µM |  | > 100 µM |  | > 100 µM |  | > 100 µM |  |  |  | > 100 |  | > 100 µM |  | > 100 µM |  | > 100 µM |  | > 100 µM
CC(C)(CCC(C)(C)c1ccccc1)c1ccccc1 |  | 37.6 µM |  | 28.5 µM |  | 49.9 µM |  | 27.5 µM |  | 32.4 µM |  | 50 |  | 37.9 µM |  |  |  | 41.4 µM |  | 46.4 µM
